ChEMBL document CHEMBL2074278, “Temocaprilat, a novel angiotensin-converting enzyme inhibitor, is excreted in bile via an ATP-dependent active transporter (cMOAT) that is deficient in Eisai hyperbilirubinemic mutant rats (EHBR)” (J Pharmacol Exp Ther, 1997)
Values belong to the molecule of their own block, whether it stands above or below them.

Columns and labels:
Assay type in all cases: functional, cell membranes, Sprague-Dawley, Bile canalicular membrane vesicle
[1] = target: T1, ATP-binding cassette sub-family C member 2 (Rattus norvegicus, UniProt Q63120); assay: TP_TRANSPORTER: inhibition of Temocaprilat uptake in bile canalicular membrane vesicles from SD rat
[2] = target: T1, ATP-binding cassette sub-family C member 2; assay: TP_TRANSPORTER: inhibition of DNP-SG uptake in bile canalicular membrane vesicles from SD rat
[3] = substrate: O=C(O)CN1C[C@@H](c2cccs2)SC[C@H](N[C@@H](CCc2ccccc2)C(=O)O)C1=O; assay: TP_TRANSPORTER: uptake in bile canalicular membrane vesicles from SD rat

Molecule: N[C@@H](CCC(=O)N[C@H](CSc1ccc([N+](=O)[O-])cc1[N+](=O)[O-])C(=O)NCC(=O)O)C(=O)O
- Ki [1]: 25.8 µM

- Ki [2]: 343 µM
Molecule: O=C(O)CN1C[C@@H](c2cccs2)SC[C@H](N[C@@H](CCc2ccccc2)C(=O)O)C1=O [TEMOCAPRILAT]

B1: ATP-binding cassette sub-family C member 2 (Rattus norvegicus) (protein)
chain: MDKFCNSTFWDLSLLESPEADLPLCFEQTVLVWIPLGFLWLLAPWQLYSVYRSRTKRSSITKFYLAKQVFVVFLLILAAIDLSLALTEDTGQATVPPVRYTNPILYLCTWLLVLAVQHSRQWCVRKNSWFLSLFWILSVLCGVFQFQTLIRALLKDSKSNMAYSYLFFVSYGFQIVLLILTAFSGPSDSTQTPSVTASFLSSITFSWYDRTVLKGYKHPLTLEDVWDIDEGFKTRSVTSKFEAAMTKDLQKARQAFQRRLQKSQRKPEATLHGLNKKQSQSQDVLVLEEAKKKSEKTTKDYPKSWLIKSLFKTFHVVILKSFILKLIHDLLVFLNPQLLKLLIGFVKSSNSYVWFGYICAILMFAVTLIQSFCLQSYFQHCFVLGMCVRTTVMSSIYKKALTLSNLARKQYTIGETVNLMSVDSQKLMDATNYMQLVWSSVIQITLSIFFLWRELGPSILAGVGVMVLLIPVNGVLATKIRNIQVQNMKNKDKRLKIMNEILSGIKILKYFAWEPSFQEQVQGIRKKELKNLLRFGQLQSLLIFILQITPILVSVVTFSVYVLVDSANVLNAEKAFTSITLFNILRFPLSMLPMVTSSILQASVSVDRLERYLGGDDLDTSAIRRVSNFDKAVKFSEASFTWDPDLEATIQDVNLDIKPGQLVAVVGTVGSGKSSLVSAMLGEMENVHGHITIQGSTAYVPQQSWIQNGTIKDNILFGSEYNEKKYQQVLKACALLPDLEILPGGDMAEIGEKGINLSGGQKQRVSLARAAYQDADIYILDDPLSAVDAHVGKHIFNKVVGPNGLLAGKTRIFVTHGIHFLPQVDEIVVLGKGTILEKGSYRDLLDKKGVFARNWKTFMKHSGPEGEATVNNDSEAEDDDDGLIPTMEEIPEDAASLAMRRENSLRRTLSRSSRSSSRRGKSLKNSLKIKNVNVLKEKEKEVEGQKLIKKEFVETGKVKFSIYLKYLQAVGWWSILFIILFYGLNNVAFIGSNLWLSAWTSDSDNLNGTNNSSSHRDMRIGVFGALGLAQGICLLISTLWSIYACRNASKALHGQLLTNILRAPMRFFDTTPTGRIVNRFSGDISTVDDLLPQTLRSWMMCFFGIAGTLVMICMATPVFAIIIIPLSILYISVQVFYVATSRQLRRLDSVTKSPIYSHFSETVTGLPIIRAFEHQQRFLAWNEKQIDINQKCVFSWITSNRWLAIRLELVGNLVVFCSALLLVIYRKTLTGDVVGFVLSNALNITQTLNWLVRMTSEAETNIVAVERISEYINVENEAPWVTDKRPPADWPRHGEIQFNNYQVRYRPELDLVLKGITCNIKSGEKVGVVGRTGAGKSSLTNCLFRILESAGGQIIIDGIDVASIGLHDLRERLTIIPQDPILFSGSLRMNLDPFNKYSDEEVWRALELAHLRSFVSGLQLGLLSEVTEGGDNLSIGQRQLLCLGRAVLRKSKILVLDEATAAVDLETDSLIQTTIRKEFSQCTVITIAHRLHTIMDSDKIMVLDNGKIVEYGSPEELLSNRGSFYLMAKEAGIENVNHTEL
- Km [3]: 92.5 µM
